Assays:
Type in all cases: in vivo
[1] = tested on: Bactrocera dorsalis (OFF); assay: OFF two-choice cage oviposition bioassay on guava juice-infused agar; parameters: key to Activity (OFF oviposition group): Negative: “OFF negative” (i.e., oviposition reduced); Neutral: “OFF neutral” (i.e., no effect on oviposition); Positive: “OFF positive” (i.e., oviposition increased); settings: for OFF oviposition increase vs control agar / effect on OFF oviposition vs control agar / OFF oviposition reduction vs control agar: 20 mg/agar; for OFF oviposition increase vs control agar: ethanol control; for Activity (OFF oviposition group): individual CFA component; for effect on OFF oviposition vs control agar / OFF oviposition deterrence at lower dose: individual compound; for OFF oviposition reduction vs control agar: 3 days; for OFF oviposition deterrence at lower dose: 2 mg dose
Description: Evaluation of oviposition deterrence of CFA: OFF oviposition bioassays were conducted using laboratory two-choice cage experiments with guava juice-infused agar as an oviposition substrate. The agar plates were prepared by pouring 30 mL of boiled agar mixture [1000 mL distilled water, 500 mL guava juice (Deans Foods, El Paso, Texas, USA), 10 g agar, 0.6 g methylparaben, 6.7 mL 95% ethanol, and 3 mL acetic acid] into a 30 mL deli plastic cup to gel. The agar was then covered with a lid to avoid desiccation. The two-choice oviposition bioassay was conducted in screened cages using 20 mated OFF females per cage (12-18 day-old; Jang E B et al., 1997, “Attraction of female oriental fruit fly, Bactrocera dorsalis, to volatile semiochemicals from leaves and extracts of a non-host plant, Panax (Polyscias guilfoylei) in laboratory and olfactometer assays,” J. Chem. Ecol. 23:1389-1401) over 3 days. Each cage was provided with a ball of water-saturated cotton, sugar, and protein hydrolysate in separate 30 mL deli cups and two guava juice agar plates-one treated with CFA diluted in hexane and the other treated with the hexane control. The agar plates were surface-treated either with 200 μL of hexane or 200 μL of CFA in one of 4 doses tested (20, 2, 0.2, and 0.02 mg/200 μL of hexane), placed into a fume hood for 10 minutes prior to use in bioassays, and positioned upside-down (i.e., treated side down) on the center of the outside top of the screened cage 17 cm apart from each other (i.e., one each of control and CFA treated), allowing female flies to oviposit on guava juice agar from the bottom through the cage screen. After three days, OFF eggs in the guava agar were gently separated from the agar in water and the number of eggs were individually counted (up to 100 eggs) or estimated volumetrically at 1 mL OFF eggs=20,000 eggs (Stephanie Gayle personal communication). The experiment was replicated six times per treatment. Determination of bioactive oviposition deterrent components from CFA: A series of bioassays was conducted to identify key deterrent components of CFA for OFF using the same two-choice bioassay design described above. […] Ethanol was used as control and for preparing dilutions of C16:0 and C18:0. Hexane was used as control and for dilutions of the other six compounds tested. Based on the outcome of these bioassays, the eight free fatty acid components were assigned to “OFF negative” (i.e., oviposition reduced), “OFF neutral” (i.e., no effect on oviposition), and “OFF positive” (i.e., oviposition increased) compound groups. Using these groupings, four different blends were formulated (indicated in Table 1), composed at the equivalent ratios and concentrations of each component found in CFA (Zhu J J et al., 2018, supra), to determine key bioactive CFA components in terms of oviposition deterrence on OFF. The approach involved testing the bioactivity of the OFF negative-component blend (4c blend) for oviposition deterrence at three different doses (2, 0.2, and 0.02 mg CFA equivalent/agar), first comparing with hexane control, then with CFA at respective equivalent doses. As the 4c blend was not as effective as CFA, a “OFF negative+OFF neutral” component blend (6c blend) was then formulated, and its effect compared with CFA at 2 and 0.2 mg CFA equivalent/agar. Two subtraction blends with one of the two OFF neutral components removed from the 6c blend (5c-i and 5c-ii blends) were formulated and compared with the 6c blend at 2 and 0.2 mg CFA equivalent/agar. The experiment was replicated four to six times per treatment.

Drosophila suzukii (SWD) = assay: SWD laboratory two-choice oviposition bioassay on raspberries; parameters: key to Behavioral activity (SWD oviposition group): Negative: “SWD negative” compounds (i.e., SWD oviposition was reduced); Neutral: “SWD neutral” compounds (i.e., no effect on oviposition); settings: two-choice; for Behavioral activity (SWD oviposition group): individual CFA component; for effect on SWD oviposition vs control: individual compound, 20 mg dose
Description: Laboratory choice test 1 Oviposition bioassays were conducted at USDA-ARS in Hilo, Hawaii using a laboratory two-choice cage experimental set-up with organic raspberries purchased from a local grocery as an oviposition substrate. For all laboratory assays listed below, the receptacles of the raspberries were stuffed with cotton to prevent flies from ovipositing on the interior of the fruit as described previously in Cha D H et al. (2021, supra). The two-choice oviposition bioassay was conducted over 24 hours in screened cages (30 cm W×30 cm L×30 cm H; BugDorm-2120 Insect tent; shop.bugdorm.com) with 30 female and 10 male SWD (7-8 days old) released per cage. Each cage was provided with cotton moistened with water in a 20 mL deli cup and two 30 mL deli cups; one with two raspberries treated with CFA diluted in hexane and the other with two raspberries treated with hexane only. Each raspberry was surface-treated either with 200 μL of hexane or 200 μL of CFA in one of three doses (20, 2, or 0.2 mg CFA/200 μL hexane), placed into a fume hood for 10 minutes or until used in the bioassay. The deli cups with the treated berries were positioned in the center of the floor of the screened cage, 17 cm apart from each other. Female flies were allowed to oviposit on the surface of raspberries for 24 hours. At the conclusion of the bioassay, each 30 mL deli cup containing two raspberries was moved into a 600 mL deli cup with a mesh cap, held for 8 days (22.1±1.9° C., 71.7±3.1% RH, 16:8 L:D), when the number of larvae and pupae were counted. The experiment was replicated four times per treatment. Laboratory choice test 2 A series of bioassays were conducted in Hilo, Hawaii to identify key bioactive deterrent components of CFA for SWD using the same two-choice bioassay described above. […] Due to solubility differences, ethanol was used as control and for dilution of C16:0 and C18:0, while hexane was used as control and for dilution of the other six compounds tested. Based on the outcome of these bioassays, the eight free fatty acid components of CFA were grouped into two groups; “SWD negative” compounds (i.e., SWD oviposition was reduced) and “SWD neutral” compounds (i.e., no effect on oviposition), and tested whether the blend of “SWD negative” compounds had the same oviposition deterrence as the CFA at their equivalent concentrations as in CFA (see Table 2). The oviposition deterrence of the blend of “SWD negative” compounds was first compared to hexane at three different doses (20, 2 and 0.2 mg CFA equivalent/raspberry) and subsequently compared to CFA at 2 mg equivalent dose.

Zeugodacus cucurbitae = assay: Z. cucurbitae two-choice oviposition bioassay on pumpkin juice-infused agar; parameters: key to Behavioral activity (Z. cucurbitae oviposition group): Negative: “negative” (i.e., oviposition reduced); Neutral: “neutral” (i.e., no effect on oviposition); Positive: “positive” (i.e., oviposition increased); settings: for Z. cucurbitae oviposition increase vs ethanol control agar: 24 hours; for Behavioral activity (Z. cucurbitae oviposition group): individual CFFA component; for Z. cucurbitae oviposition reduction vs control agar: individual compound
Description: Oviposition bioassays were conducted with mated female flies, using pumpkin juice-infused agar as an oviposition substrate. A small petri dish (60×15 mm) filled with 10 mL of 1% agar mixed in pumpkin juice was used as an oviposition substrate. The agar plates were surface-treated either with 200 μL of ethanol or 200 μL of CFFA in one of 4 doses tested (20, 2, 0.2, and 0.02 mg/200 μL of ethanol), placed into a fume hood for 10 minutes for solvent evaporation prior to use in bioassays, and positioned upside-down (i.e. treated side down) on top of the 30×30×30 cm (W×L×H) screened cage 17 cm apart from each other (i.e. one each of control and CFFA treated), allowing 20 female flies (14 to 18 day-old) to oviposit on pumpkin juice agar from the bottom through the cage screen for 24 hours. Each cage was provided with a ball of water-saturated cotton, sugar, and protein hydrolysate in separate 30 mL deli cups and two oviposition substrates-one treated with CFFA diluted in ethanol and the other treated with the ethanol control. After 24 hours, Z. cucurbitae eggs in the pumpkin agar were gently separated from the agar in water and the number of eggs were individually counted. The experiment was replicated five times per treatment. CFFA was not an effective oviposition deterrent for Z. cucurbitae which is contrary to our previous work on B. dorsalis (Roh et al., 2023a). […] CFFA components were categorized into three groups “negative” (i.e., oviposition reduced), “neutral” (i.e., no effect on oviposition), and “positive” (i.e., oviposition increased) based on bioassay outcome. Using these categories, further formulations were made to determine key bioactive CFFA components in terms of oviposition deterrence on Z. cucurbitae at the equivalent ratios and concentrations of each component found in CFFA (Zhu et al. 2018). The approach involved testing the bioactivity of the negative-component blend (4c blend) for oviposition deterrence at three different doses (2, 0.2, and 0.02 mg CFFA equivalent/agar), compared with ethanol control. Further, neutral compound is added to the negative blend i.e., ‘negative+neutral’ component blend (5c blend) to identify key compounds for oviposition deterrence. The experiment was replicated five times per treatment.

Bactrocera dorsalis = assay: B. dorsalis spatial deterrence, two-choice traps baited with guava juice; settings: tested individually
Description: In addition to CFA, a series of odd-numbered carbon fatty acids (C9:0 to C17:0) and fatty acid methyl esters were evaluated for the spatial deterrence to B. dorsalis that results in oviposition reduction. Table 3 below lists the fatty acid methyl esters tested for spatial repellency for Bactrocera dorsalis. […] FIG. 16A, FIG. 16C, FIG. 16E, FIG. 16G, FIG. 16I, FIG. 16K, FIG. 16M, FIG. 16O, FIG. 16Q, and FIG. 16S show the mean numbers (±SEM) of mated female B. dorsalis flies captured, and FIG. 16B, FIG. 16D, FIG. 16F, FIG. 16H, FIG. 16J, FIG. 16L, FIG. 16N, FIG. 16P, FIG. 16R, and FIG. 16T show the number of B. dorsalis eggs oviposited in traps baited with guava juice (control) and with guava juice plus one of the coconut fatty acid methyl ester compounds in two-choice bioassays. For each test, different letter on the bar indicate a significant difference by Tukey-Kramer tests at P<0.05, n=4.

SMILES: CCCCCCCCCCCCCCCC(=O)O [C16:0, palmitic acid]
- OFF oviposition increase vs control agar [1]: 60%
- Activity (OFF oviposition group) [1]: Positive
- Behavioral activity (SWD oviposition group) (Drosophila suzukii (SWD)): Neutral
- effect on SWD oviposition vs control (Drosophila suzukii (SWD)): did not increase or decrease SWD oviposition
- Z. cucurbitae oviposition increase vs ethanol control agar (Zeugodacus cucurbitae; 20 mg dose): 67.3%
- Behavioral activity (Z. cucurbitae oviposition group) (Zeugodacus cucurbitae): Positive

SMILES: CCCCCCCCC(=O)OC [C9:0 ME, Methyl pelargonate]
- effect on female B. dorsalis attraction and oviposition to host fruit odors (Bactrocera dorsalis): significantly reduced

SMILES: CCCCCCCCCCCCCCC(=O)OC [C15:0 ME, Methyl pentadecanoate]
- effect on female B. dorsalis attraction and oviposition to host fruit odors (Bactrocera dorsalis): significantly reduced

SMILES: CCCCCCCCCCCC(=O)O [C12:0, lauric acid]
- Activity (OFF oviposition group) [1]: Neutral
- effect on OFF oviposition vs control agar [1]: did not affect OFF oviposition
- Behavioral activity (SWD oviposition group) (Drosophila suzukii (SWD)): Neutral
- effect on SWD oviposition vs control (Drosophila suzukii (SWD)): did not increase or decrease SWD oviposition
- Z. cucurbitae oviposition increase vs ethanol control agar (Zeugodacus cucurbitae; 20 mg dose): 86.4%
- Behavioral activity (Z. cucurbitae oviposition group) (Zeugodacus cucurbitae): Positive

SMILES: CCCCCCCCCCC(=O)OC [C11:0 ME, Methyl undecanoate]
- effect on female B. dorsalis attraction and oviposition to host fruit odors (Bactrocera dorsalis): significantly reduced

SMILES: CCCCCCCCCCCCCC(=O)O [C14:0, myristic acid]
- Activity (OFF oviposition group) [1]: Neutral
- effect on OFF oviposition vs control agar [1]: did not affect OFF oviposition
- Behavioral activity (SWD oviposition group) (Drosophila suzukii (SWD)): Neutral
- effect on SWD oviposition vs control (Drosophila suzukii (SWD)): did not increase or decrease SWD oviposition
- Z. cucurbitae oviposition increase vs ethanol control agar (Zeugodacus cucurbitae; 20 mg dose): 77.7%
- Behavioral activity (Z. cucurbitae oviposition group) (Zeugodacus cucurbitae): Positive

SMILES: CCCCCCCCCCCCC(=O)OC [C13:0 ME, Methyl tridecanoate]
- effect on female B. dorsalis attraction and oviposition to host fruit odors (Bactrocera dorsalis): significantly reduced

SMILES: CCCCCCCC/C=C\CCCCCCCC(=O)O [C18:1, oleic acid]
- OFF oviposition reduction vs control agar [1]: 100%
- Activity (OFF oviposition group) [1]: Negative
- OFF oviposition deterrence at lower dose [1]: maintained OFF oviposition deterrence
- Behavioral activity (SWD oviposition group) (Drosophila suzukii (SWD)): Neutral
- effect on SWD oviposition vs control (Drosophila suzukii (SWD)): did not increase or decrease SWD oviposition
- effect on Z. cucurbitae oviposition (Zeugodacus cucurbitae; 2 mg dose): either lost oviposition deterrence or increased oviposition
- Behavioral activity (Z. cucurbitae oviposition group) (Zeugodacus cucurbitae): Negative
- Z. cucurbitae oviposition reduction vs control agar (Zeugodacus cucurbitae; 20 mg dose): 98.1%

SMILES: CCCCCCCCCCC(=O)O [C11:0, Undecylic acid]
- effect on OFF oviposition vs control agar [1]: significantly reduced

SMILES: CCCCC/C=C\C/C=C\CCCCCCCC(=O)O [C18:2, linoleic acid]
- OFF oviposition reduction vs control agar [1]: 99%
- Activity (OFF oviposition group) [1]: Negative
- OFF oviposition deterrence at lower dose [1]: maintained OFF oviposition deterrence
- Behavioral activity (SWD oviposition group) (Drosophila suzukii (SWD)): Neutral
- effect on SWD oviposition vs control (Drosophila suzukii (SWD)): did not increase or decrease SWD oviposition
- effect on Z. cucurbitae oviposition (Zeugodacus cucurbitae; 2 mg dose): either lost oviposition deterrence or increased oviposition
- Behavioral activity (Z. cucurbitae oviposition group) (Zeugodacus cucurbitae): Negative
- Z. cucurbitae oviposition reduction vs control agar (Zeugodacus cucurbitae; 20 mg dose): 96.4%

SMILES: CCCCCCCCCCCCCCCCCC(=O)O [C18:0, stearic acid]
- OFF oviposition increase vs control agar [1]: 29%
- Activity (OFF oviposition group) [1]: Positive
- Behavioral activity (SWD oviposition group) (Drosophila suzukii (SWD)): Neutral
- effect on SWD oviposition vs control (Drosophila suzukii (SWD)): did not increase or decrease SWD oviposition
- effect on Z. cucurbitae oviposition (Zeugodacus cucurbitae; 20 mg dose): did not affect oviposition
- Behavioral activity (Z. cucurbitae oviposition group) (Zeugodacus cucurbitae): Neutral

Reference: patent US20240114902A1, “COMPOSITIONS AND METHODS FOR DETERRING OVIPOSITION BY FRUIT FLIES” (The United States of America, as represented by The …, priority 2022, published 2024)
